Literature values as cited in article PMC11089243, “The first selective VAP-1 inhibitor in China, TT-01025-CL: safety, tolerability, pharmacokinetics, and pharmacodynamics of single- and multiple-ascending doses” (Frontiers in Pharmacology, 2024).

Tests used:
[1] = set-up: method as in NASH, 2022; conditions: ref NASH, 2022
[2] = test system: monoamine oxidase-B in the brain; set-up: method as in NASH, 2022; conditions: NASH patients; inhibition of monoamine oxidase-B in the brain; ref NASH, 2022

brain penetration (in words) [1]: high brain penetration | finding of phase I study leading to suspension of development [2]: risk of drug interactions
Compound: CC(C)(C)NC(=O)c1ccc(OC/C(=C/F)CN)cc1.Cl [BI 1467335]
